According to patent US20170354669A1, “DISRUPTION OF THE INTERACTION BETWEEN AMYLOID BETA PEPTIDE AND DIETARY LIPIDS” (The Trustees of Columbia University in the City of New York, priority 2016, published 2017):
“And” between values parts separate entries of the source, which are not always exact repeats. Equal entries are not always repeated. “Also recorded” adds a separate entry of the source.

Key:
Aβ42 = molecular target: T1, Aβ42 (Homo sapiens, UniProt P05067); assay: Lipid binding assay: Aβ42-FAM binding to plate-bound amine-containing lipids
T1 construct: SensoLyte Fluorescent β-Amyloid1-42 Sampler Kit, Anaspec; purchased Anaspec
Source text: Maleic Anhydride Activated plates (Pierce Amine-binding, 96-well plates, Thermo Scientific) were washed in wash buffer (PBS: Phosphate buffered saline, 0.15 M sodium chloride, pH 7.2 containing 0.05% Tween-20 Detergent, PBST, Thermo Scientific) 4 times to activate reactive maleic anhydride functional group. Amine containing lipids were PE containing docosahexaenoyl (22:6) and stearoyl (18:0) acyl chains (22:6/18:0 PE) or two stearoyl acyl chains (di18:0 PE) were from Avanti Polar Lipids. 22:6/18:0 PE was obtained in chloroform, dried down and solubilized at 200 pmol/μL in 1% n-octylglucoside (NOG, Santa Cruz) in PBS and sonicated for […]. di18:0 PE was obtained as a powder, solubilized at 200 pmol/μl in 1% NOG and bath sonicated for 5 minutes. Lipids were incubated at a volume of 100 μL in activated maleic anhydride plates at increasing concentration at 4° C. in PBS/1% NOG. After incubation, lipids were removed and SuperBlock Blocking Buffer/PBS (Thermo) was added at a volume of […] for 1 hour at room temperature. Plates were then washed 4 times with PBST (Thermo Scientific). Fluorescently labeled amyloid β-peptide (SensoLyte Fluorescent β-Amyloid1-42 Sampler Kit, Anaspec) was prepared with […], Component B, Solvent for β-amyloid (Anaspec) as per the commercial protocol and then diluted in deionized water to a concentration of 100 μM. […] Plates were then washed 4 times in PBST and fluorescence was detected using Tecan Infinite 200 at wavelengths 494/521 (excitation, emission) using the Optimal Gain setting.
Assays were done in triplicate wells and reported as mean+/−standard error. Binding kinetics and best fit curve fitting were accomplished using Prism Graphpad software.
Lipid containing long chain polyunsaturated fatty acid 22:6, docosahexaenoic acid (DHA) and an amine containing headgroup, phosphatidylethanoloamine (PE) was bound to maleic anhydride activated plates which bind to free primary amine functional groups at neutral and alkaline pH. […] Specific binding was calculated by subtracting background binding of di18:0 PE.

APPsw+ mice [1] = assay: Nesting behavior after intranasal treatment; type: in vivo; conditions: 10 days intranasal low dose 0.5 mg/kg every other day, vs saline treated APPsw+, FIG. 4A
Experimental: SDPC was obtained from Avanti Polar Lipids (850472C) in chloroform, dried under vacuum conditions and resuspended in 0.9% saline (0.9% sodium chloride injection, USP, NDC 0409-7983-61, Hospira) containing 0.2% (weight:volume) methyl cellulose (average Mn 40,000, viscosity: 400 cP, CAS 9004-67-5, Sigma-Aldrich 274429) to aid in solubilization. A control solution of 0.9% saline containing 0.2% methyl cellulose was prepared at the same time without SDPC. A concentration of 3 mg/ml was used for doses 1-15 and 12 mg/ml was used for doses 16-18 (FIG. 3). Brief (3-5 minutes) bath sonication was used to improve solubility of 12 mg/ml concentration. Mice were treated for 10 days at a low dose of SDPC intranasally administered 2.5 uL each nostril (5 μL total dose) for 0.5 mg/kg every other day assuming average mouse weight of 30 g (0.03 kg) (FIG. 3). After 10 days, dose was escalated to 2 mg/kg every other day for an additional 19 days (total treatment time […]). Doses 16-18 were administered daily. Non-invasive behavioral testing using novel object recognition (118) and Nesting behavior (114) were used to assess behavioral function. Deficits were expected in APPsw+ (Tg) mice and compared to wild type littermates of the same age (13-14 months). […]

APPsw+ mice [2] = assay: Novel object recognition (NOR) training and testing, activity and exploration; type: in vivo
Experimental: FIGS. 6A-6B. 30 days treatment with escalating dose SDPC. (A) Mice were placed in a box with two identical objects for 10 minutes on the training day 1. […] One object was replaced with a novel object for testing (NOD index). The same data is shown to scale in FIG. 6B (Testing (immediate)). Twenty-four hours later (Testing (24 hours)), mice were placed in the same context with one of the original identical objects (Familiar) and a second novel object (Novel). The time spent with each object was recorded. (B) For testing, novel object discrimination (NOD index) is assessed using the equation [(time novel)/(time familiar+time novel)]. NOD index of 0.5 represents equal time with each object. NOD>0.5 represents more time spent with novel object. Standard error is shown for means of Saline treated APPsw+(control) (n=4); SDPC treated APPsw+ (n=5) and wild type receiving no treatment (n=4). Significance was determined for […] using Student's t-test. SDPC was obtained from Avanti Polar Lipids (850472C) in chloroform, dried under vacuum conditions and resuspended in 0.9% saline (0.9% sodium chloride injection, USP, NDC 0409-7983-61, Hospira) containing 0.2% (weight:volume) methyl cellulose (average Mn 40,000, viscosity: 400 cP, CAS 9004-67-5, Sigma-Aldrich 274429) to aid in solubilization. A control solution of 0.9% saline containing 0.2% methyl cellulose was prepared at the same time without SDPC. A concentration of 3 mg/ml was used for doses 1-15 and 12 mg/ml was used for doses 16-18 (FIG. 3). Brief (3-5 minutes) bath sonication was used to improve solubility of 12 mg/ml concentration. Mice were treated for 10 days at a low dose of SDPC intranasally administered 2.5 uL each nostril (5 μL total dose) for 0.5 mg/kg every other day assuming average mouse weight of 30 g (0.03 kg) (FIG. 3). After 10 days, dose was escalated to 2 mg/kg every other day for an additional 19 days (total treatment time […]). Doses 16-18 were administered daily. Non-invasive behavioral testing using novel object recognition (118) and Nesting behavior (114) were used to assess behavioral function. Deficits were expected in APPsw+ (Tg) mice and compared to wild type littermates of the same age (13-14 months). APPsw+ mice were treated (Tx) with either control solution of 0.9% saline containing 0.2% methyl cellulose [Saline] or SDPC in 0.9% saline containing 0.2% methyl cellulose [SDPC]. […] Significant changes were seen using Student's t-test comparing SDPC and wild type (non-treated) [WT Ntx] and comparing saline and WT Ntx, but not when comparing SDPC and saline groups likely due to small sample size (n=4-5).

APPsw+ mice [3] = assay: Open Field testing; type: in vivo; conditions: 10 days intranasal low dose, following NOR testing; FIG. 4D
Experimental: FIGS. 4A-4D. 10 days treatment with low dose SDPC. (A) After 10 days treatment (Tx) with low dose phosphatidylcholine (PC) containing docosahexaenoyl (22:6) and stearoyl (18:0) acyl chains, 18:0-22:6 PC; 1-stearoyl-2-docosahexaenoyl-sn-glycero-3-phosphocholine (CAS Number 59403-52-0; Synonyms: 1-octadecanoyl-2-(4Z,7Z,10Z,13Z,16Z,19Z-docosahexaenoyI)-sn-glycero-3-phosphocholine and PC(18:0/22:6(4Z,7Z,10Z,13Z,16Z,19Z))) (SDPC) intranasally, nesting score was assessed as described before (114). The number of nestlettes (from 3 initially placed in cage) was estimated and exact weight of remaining nestlettes was determined in grams (g) from initial 3 nestlettes (approximately 2 g). (B) Activity during novel object recognition (NOR) training was assessed after 10 days intranasal SDPC. Grooming behavior, free rearing, wall rearing and center crossing events are shown and were summed in total events. (C) Time spent with each identical object during NOR training. (D) Activity during Open Field testing 24 hours after NOR training (note, no difference in novel object discrimination (NOD) index was found. Standard error is shown for means of Saline treated APPsw+(control) (n=4); SDPC treated APPsw+ (n=5) and wild type receiving no treatment (n=4). Significance was determined for […] using Student's t-test. […]

APPsw+ mice [4] = assay: Novel object recognition (NOR) training and testing, activity and exploration; type: in vivo; conditions: 10 days intranasal low dose
[5] = molecular target: T2, Aβ42-FAM bound lipids containing 22:6 (Homo sapiens, UniProt P05067); assay: Competition of Aβ42-FAM binding to plate-bound 22:6 lipid; conditions: competitor peptide 5×, 1 μM; FIG. 1C
T2 construct: SensoLyte Fluorescent β-Amyloid1-42 Sampler Kit, Anaspec; purchased Anaspec
Experimental: Scrambled Aβ or unlabeled Aβ42 peptides (Anaspec) were diluted to 100 μM as above and then diluted in SuperBlock Blocking buffer to 1 μM, incubated for 1 hour at room temperature. Plates were washed and FAM fluorescence was read as above. Lipid containing long chain polyunsaturated fatty acid 22:6, docosahexaenoic acid (DHA) and an amine containing headgroup, phosphatidylethanoloamine (PE) was bound to maleic anhydride activated plates which bind to free primary amine functional groups at neutral and alkaline pH. All binding and washing steps were done in PBS, PBST and SuperBlock PBS to maintain pH at 7.2. A control acyl chain lipid hypothesized not to bind to Aβ peptide was 18:0, stearic acid containing PE (di18:0). After lipids were bound and unreacted binding sites were blocked using SuperBlock, Aβ42 peptide fluorescently tagged with FAM (Anaspec) was incubated with lipid bound wells. […] The dissociation constant Kd was calculated to be 300 nM. Specific binding was calculated by subtracting background binding of di18:0 PE.

CC/C=C\C/C=C\C/C=C\C/C=C\C/C=C\C/C=C\CCC(=O)O [DHA, docosahexaenoic acid]
Kd (Aβ42; read-out: dissociation constant Kd of Aβ binding to DHA): ~300 nM and 300 nM

CC/C=C\C/C=C\C/C=C\C/C=C\C/C=C\C/C=C\CCC(=O)O[C@H](COC(=O)CCCCCCCCCCCCCCCCC)COP(=O)([O-])OCC[N+](C)(C)C [SDPC, 1-stearoyl-2-docosahexaenoyl-sn-glycero-3-phosphocholine]
nesting behavior (APPsw+ mice [1]): trend toward improvement; also recorded: non-significant trend for improvement
discrimination of one displaced identical object (hippocampal function) (APPsw+ mice [2]; 30 days escalating dose, training day 2, FIG. 6A): no discrimination was determined
number of wall rears and total activity events (APPsw+ mice [2]; 30 days intranasal escalated dose (to 2 mg/kg), SDPC vs saline treated APPsw+, FIG. 5): significant improvement
NOR deficits: time spent with a novel object (APPsw+ mice [2]; 30 days intranasal escalated dose, FIG. 6): significant amelioration
novel object discrimination index (NOD index) (APPsw+ mice [2]; 30 days intranasal escalated dose, FIG. 6B): significant changes were not observed; also recorded: trend for amelioration
activity in the open field test (APPsw+ mice [3]): continued improvement of activity level; also recorded: restored to the level of wild type non-treated mice
NOR discrimination (NOD index) 24 hours after training (APPsw+ mice [4]): no discrimination was found; also recorded: no difference
activity during NOR training (wall rearing, free rearing, total activity level) (APPsw+ mice [4]; vs saline treated APPsw+, FIG. 4B): trend toward improvement; also recorded: non-significant trend for improvement
exploration: time spent with identical objects during NOR training (APPsw+ mice [4]; FIG. 4C): trend toward improved exploratory behavior; also recorded: non-significant trend toward exploration activity

CCCCCCCCCCCCCCCCCC(=O)OC[C@H](COP(=O)(O)OCCN)OC(=O)CCCCCCCCCCCCCCCCC [di18:0 PE, reference compound]
binding of Aβ42-FAM to plate-bound lipid (Aβ42; FIGS. 1A and 1B, di18:0 at concentrations 10,000 pmol/well and below): very low binding activity
binding of Aβ42-FAM to plate-bound lipid at the highest concentrations (Aβ42; only at the highest concentrations of lipid): modest binding

unlabeled Aβ42 peptide: unlabeled Aβ42 peptide (Anaspec) used as competitor
competitive disruption of Aβ42-FAM binding to 22:6 lipid [5]: competitively disrupted
